Assay results from patent US20100203175A1, “DEGLYCATION OF AGEs” (BASF BEAUTY CARE SOLUTIONS FRANCE S.A.S., priority 2007, published 2010).

Target: AGEs (bovine serum albumin (BSA) incubated with a reducing sugar) (Bos taurus, UniProt P02769)
Test: Reversion of the Maillard reaction: deglycation of AGEs prepared from bovine serum albumin and glucose, fluorescence read-out
Format: biochemical
Conditions: characterized molecules, in particular at 1×10^−1% in water or DMSO; about 50° C., 3 weeks; fluorescence with active principle versus positive control (15 mM aminoguanidine)
Experimental: The preparation of a solution containing a protein and a reducing sugar was carried out extemporaneously as follows: a solution of bovine serum albumin (BSA) at a concentration between 1.5 μM and 1.5M, preferably between 15 μM and 500 μM was incubated with a solution of a reducing sugar such as glucose, fructose, etc., preferably with glucose at a concentration between 0.1M and 10M and preferably between 0.5M and 5M.
The incubation was maintained between 1 and 5 weeks, and preferably for 3 weeks.
The measure of inhibition of the AGEs was carried out by measuring the fluorescence (excitation wavelength between 350 and 375 nm, preferably at 355 nm; emission wavelength between 420 and 450 nm, preferably at 430 nm). The reversion of the Maillard reaction was calculated by comparing the fluorescence of AGEs set at 100% (maximum fluorescence) with the fluorescence of AGEs+active agent tested.
The preparation of a protein/reducing sugar solution was carried out according to the method described in Example 1 (paragraph 1).
The preparation of a solution of protein/reducing sugar was carried out according to the method described in Example 1 (paragraph 1). […]

Sequence of AGEs (bovine serum albumin (BSA) incubated with a reducing sugar) (P02769 25-607): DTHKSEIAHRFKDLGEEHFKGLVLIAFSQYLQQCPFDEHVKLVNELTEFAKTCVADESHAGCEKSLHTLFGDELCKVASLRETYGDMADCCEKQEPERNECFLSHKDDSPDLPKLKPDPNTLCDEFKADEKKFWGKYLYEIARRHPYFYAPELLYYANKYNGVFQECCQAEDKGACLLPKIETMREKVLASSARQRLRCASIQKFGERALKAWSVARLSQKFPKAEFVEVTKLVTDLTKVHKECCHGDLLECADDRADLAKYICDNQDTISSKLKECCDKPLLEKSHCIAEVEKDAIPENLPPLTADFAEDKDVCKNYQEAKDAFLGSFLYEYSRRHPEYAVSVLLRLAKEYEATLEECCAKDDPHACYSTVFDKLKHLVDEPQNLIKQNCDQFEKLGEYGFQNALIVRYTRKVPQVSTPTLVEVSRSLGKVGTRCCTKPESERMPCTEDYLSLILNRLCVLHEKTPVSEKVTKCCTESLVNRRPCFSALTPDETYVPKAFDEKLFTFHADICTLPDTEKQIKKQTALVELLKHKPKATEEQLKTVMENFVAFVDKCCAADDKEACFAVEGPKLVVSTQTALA

SMILES	% deglycation [%]
O=C(O)Cc1ccc(O)c(O)c1 [3,4-Dihydroxyphenylacetic acid (DOPAC), 3,4-Dihydroxyphenylacetic acid]	100
Cc1c(C)c2c(c(C)c1O)CCC(C)(C(=O)O)O2 (centres unmarked) [6-Hydroxy-2,5,7,8-tetramethylchromane-2-carboxylic acid]	100
Cc1cn2c(=O)c3ccccc3nc2n2c(=O)c3ccccc3nc12 [6-Methyl-5,7a,13,13b-tetraazapentaphene-8,14-dione]	100
Oc1cc(O)c2c(c1)O[C@@H](c1ccc(O)c(O)c1)[C@H](O)C2 (relative stereo) [trans-3,3′,4′,5,7-Pentahydroxyflavane]	100
Nc1ccc(O)cc1 [4-Aminophenol]	100
O=C(O)C=Cc1ccc(O)c(O)c1 [3,4-Dihydroxycinnamic acid]	88
Oc1ccc2cc[nH]c2c1 [Indole alcohol amine II, 6-Hydroxyindole]	100
O=C1Cc2ccccc2N1 [Oxindole]	100
O=c1cc(CO)occ1O [2-Hydroxymethyl-5-hydroxy-γ-pyrone]	97
CC(Cc1ccc(O)c(O)c1)C(C)Cc1ccc(O)c(O)c1 (centres unmarked) [Nordihydroguaiaretic acid]	100
CNC(=O)Oc1ccc2c(c1)[C@]1(C)CCN(C)[C@@H]1N2C [Physostigmine]	87
Oc1cc(O)cc(O)c1 [1,3,5-Trihydroxybenzene (phloroglucinol), 1,3,5-Trihydroxybenzene]	100
COc1cc(C=CC(=O)O)cc(OC)c1O [3,5-Dimethoxy-4-hydroxycinnamic acid]	100
Cc1cc(C)c2c(c1O)C(=O)OC2 [7-Hydroxy-4,6-dimethyl phthalide]	100
